Test results: patent US20170107462A1, “ARRAY OF FABRIC TREATMENT PRODUCTS” (The Procter & Gamble Company, priority 2015, published 2017)

Assay: Blocker Index (BI), expert graders on malodorous fabric swatches
Set-up: key: 0-3 malodor scale; 0 = clean untreated swatch
Excerpt: Blocker materials suitable for use in consumer products of the present invention are chosen for their ability to decrease malodor, while not interfering with perception of a fragrance. Material selection is done by assigning two indices to a test sample material from two reference scales in order to rank odor strengths. The two reference scales are the Fragrance Fidelity Index (FFI) scale and the Blocker Index (BI) scale. The FFI ranks the ability of the test sample material to impart a perceivable odor which could cause interference when combined with another fragrance and the BI ranks the ability of the test sample material to reduce malodor perception. The two methods for assigning the indices to a test sample on the FFI and the BI reference scales are given below.
The first step in the method for assigning a BI to a test sample material on the BI reference scale is to create the BI reference swatches. […] Fabric swatches for this test are white knit polycotton (4 inch×4 inch) swatches from EMC ordered as PC 50/50. The supplier is instructed to strip the swatches first, stripping involves washing twice with a fragrance-free detergent and rinsing three times.
The BI scale contains one clean swatch with no malodor applied. […] These solutions are pipetted to the middle of the swatches. […] After drying for 30 minutes in a vented hood, the swatches are wrapped in aluminum foil to prevent odor contamination to the treated swatch. A clean untreated swatch is also included as the lowest anchor point of reference for malodor strength on the BI scale. The BI reference scale swatches should be used within 0.5 to 12 hours and discarded after 12 hours. The swatches are used as scale anchor points when graders evaluate a test sample(s) and are assigned a Blocker Index (BI) as show in Table 12.
The perfumer/expert grader is asked to rank order swatches according to a scale between 0 and 3.
The reference swatches represent the 0, 1, 2, and 3 BIs on the BI reference scale, Table 12. […]

CC(C)CC(=O)O [isovaleric acid]
BI grade of reference swatch, individual Expert Grader (stripped swatch with 2 μL 0.08% isovaleric acid): 2.0 | BI grade of reference swatch, individual Expert Grader (stripped swatch with 5 μL 0.08% isovaleric acid): 2.0 | BI grade of reference swatch, individual Expert Grader (stripped swatch with 20 μL 0.08% isovaleric acid): 3.0
